Source: patent EP1110454A2, “5-Carboxanilido-haloalkylthiazoles as antimicrobial and marine antifouling agents” (ROHM AND HAAS COMPANY, priority 1999, dated 2001)

How the values were obtained:
Assay type in all cases: cell-based
Rhodotorula rubra = test: Minimum Inhibitory Concentration (MIC) test, two fold serial dilutions; design: R. Rubra M9G: unit not given here; conditions: for R. Rubra M9G: Minimal Salts Media (M9G)
Experimental: (§1) The spectrum of antimicrobial activity of the antimicrobial agents useful in the present invention were determined in Minimum Inhibitory Concentration (MIC) tests. MICs were determined by two fold serial dilutions of a compound in Minimal Salts Media (M9G), Trypticase Soy Broth (TSB) or Tryticase Soy Broth and anionic surfactant (TSBA). The compounds were tested against Aspergillus niger, Rhodotorula rubra, Escherichia coli and Pseudomonas aeruginosa. Results of the MIC tests are shown below.

Escherichia coli = test: as above; design: unit not given here; conditions: Minimal Salts Media (M9G)
Experimental: as §1

[1] = test system: Aspergillus niger, Rhodotorula rubra, Escherichia coli and Pseudomonas aeruginosa; test: MIC tests, overall spectrum of antimicrobial activity; conditions: verbal summary of the MIC results of Table 1
Experimental: as §1

Aspergillus niger = test: Minimum Inhibitory Concentration (MIC) test, two fold serial dilutions; conditions: Trypticase Soy Broth (TSB)
Experimental: as §1

| SMILES | R. Rubra M9G (Rhodotorula rubra) | E.Coli M9G (Escherichia coli) | microbicidal activity [1] | R. Rubra TSB (Rhodotorula rubra; Trypticase Soy Broth (TSB)) | A. niger TSB (Aspergillus niger) |
| --- | --- | --- | --- | --- | --- |
| O=C(Nc1c(Br)cc(Br)cc1Br)c1sc(C(F)(F)F)nc1C(F)(F)F [Compound 26] | 300 | >300 |  |  |  |
| O=C(Nc1c(Br)cc(OC(F)(F)F)cc1Br)c1sc(C(F)(F)F)nc1C(F)(F)F [Compound 29] | 300 | >300 |  |  |  |
| Cc1nc(C(F)(F)F)c(C(=O)Nc2c(Cl)cc(OC(F)(F)F)cc2Cl)s1 [Compound 33] | 300 | 300 |  |  |  |
| Cc1nc(C(F)F)c(C(=O)Nc2c(Br)cc(Br)cc2Br)s1 [Compound 34] | 300 | 300 |  |  |  |
| Cc1nc(C(F)F)c(C(=O)Nc2c(Br)cc(OC(F)(F)F)cc2Br)s1 [Compound 35] | 300 | 300 |  |  |  |
| O=C(Nc1ccc(F)c(F)c1)c1sc(C(Cl)(Cl)Cl)nc1C(F)(F)F [Compound 43] | 30 | >300 | surprisingly effective at controlling microorganisms | 30 | >30 |
